# pIC50, pKi: −log10 of the molar value.
# Legend:
# [1] = molecular target: Mitogen-activated protein kinase 1 (Homo sapiens, UniProt P28482); assay: DRUGMATRIX: Protein Serine/Threonine Kinase, ERK2 enzyme inhibition (substrate: Myelin Basic Protein); set-up: species or system Escherichia coli; settings: Not Active = under 50% inhibition at 10 µM
# [2] = molecular target: T1, Cysteinyl leukotriene receptor 1 (Homo sapiens, UniProt Q9Y271); format: cell membranes, Membrane; settings: cho-k1; further: in other assays of this panel Not Active means under 50% inhibition at 10 µM
# T1 sequence (Q9Y271 whole entry): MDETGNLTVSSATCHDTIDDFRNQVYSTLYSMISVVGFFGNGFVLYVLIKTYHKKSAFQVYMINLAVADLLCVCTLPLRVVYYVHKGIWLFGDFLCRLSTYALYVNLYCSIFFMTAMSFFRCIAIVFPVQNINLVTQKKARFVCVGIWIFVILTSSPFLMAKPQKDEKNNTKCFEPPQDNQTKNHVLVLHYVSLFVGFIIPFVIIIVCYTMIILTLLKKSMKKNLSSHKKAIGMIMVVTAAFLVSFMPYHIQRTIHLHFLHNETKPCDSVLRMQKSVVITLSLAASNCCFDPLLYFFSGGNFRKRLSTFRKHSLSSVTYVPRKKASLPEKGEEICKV
# [3] = molecular target: T2, Substance-K receptor (Homo sapiens, UniProt P21452); format: cell membranes, CHO, Membrane; settings: for IC50: cho; on all read-outs here: in other assays of this panel Not Active means under 50% inhibition at 10 µM
# T2 sequence (P21452 whole entry): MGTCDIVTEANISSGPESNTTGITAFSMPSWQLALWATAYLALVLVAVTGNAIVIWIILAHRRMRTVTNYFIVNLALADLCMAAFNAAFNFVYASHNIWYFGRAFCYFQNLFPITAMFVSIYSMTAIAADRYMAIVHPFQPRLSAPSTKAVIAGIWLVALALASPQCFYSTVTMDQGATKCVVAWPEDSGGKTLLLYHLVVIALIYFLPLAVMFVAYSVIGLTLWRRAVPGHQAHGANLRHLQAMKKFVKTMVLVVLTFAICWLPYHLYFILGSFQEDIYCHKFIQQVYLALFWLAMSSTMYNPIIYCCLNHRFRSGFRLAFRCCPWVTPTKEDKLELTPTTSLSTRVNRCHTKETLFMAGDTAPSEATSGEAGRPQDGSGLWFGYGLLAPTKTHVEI
# [4] = DRUGMATRIX: Glutamate, NMDA, Agonism radioligand binding (ligand: [3H] CGP-39653); format: cell membranes, Rattus norvegicus, Wistar, Cerebral cortex, Membrane; settings: Not Active = under 50% inhibition at 10 µM
# [5] = molecular target: T3, 5-hydroxytryptamine receptor 1A (Rattus norvegicus, UniProt P19327); format: cell membranes, CHO-K1, Membrane; settings: for IC50: cho-k1; on all read-outs here: in other assays of this panel Not Active means under 50% inhibition at 10 µM
# T3 sequence (P19327 whole entry): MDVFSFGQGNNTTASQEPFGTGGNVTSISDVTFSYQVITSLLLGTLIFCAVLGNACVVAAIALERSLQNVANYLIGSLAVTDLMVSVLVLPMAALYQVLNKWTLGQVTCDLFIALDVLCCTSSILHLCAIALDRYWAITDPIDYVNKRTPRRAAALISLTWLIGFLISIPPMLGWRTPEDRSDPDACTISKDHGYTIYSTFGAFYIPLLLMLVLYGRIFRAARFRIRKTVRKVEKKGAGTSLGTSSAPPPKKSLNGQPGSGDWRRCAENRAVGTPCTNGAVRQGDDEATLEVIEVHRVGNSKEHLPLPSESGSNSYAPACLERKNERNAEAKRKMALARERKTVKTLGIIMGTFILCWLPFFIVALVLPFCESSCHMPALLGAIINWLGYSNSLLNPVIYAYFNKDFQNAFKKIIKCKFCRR
# Chain of Mitogen-activated protein kinase 1 (P28482 whole entry): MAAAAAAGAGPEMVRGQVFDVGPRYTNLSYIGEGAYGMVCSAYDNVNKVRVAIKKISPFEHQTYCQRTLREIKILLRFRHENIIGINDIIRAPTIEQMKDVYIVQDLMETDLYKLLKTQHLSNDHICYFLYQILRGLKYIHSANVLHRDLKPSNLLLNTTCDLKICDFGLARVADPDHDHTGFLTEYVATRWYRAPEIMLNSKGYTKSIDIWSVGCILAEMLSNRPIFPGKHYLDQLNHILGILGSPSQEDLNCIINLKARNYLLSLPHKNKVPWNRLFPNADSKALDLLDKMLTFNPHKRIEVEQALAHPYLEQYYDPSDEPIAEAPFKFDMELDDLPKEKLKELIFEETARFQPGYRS
SMILES,IC50 [1],IC50 [2],IC50 [3],IC50 [4],Ki [4],IC50 [5],pIC50 ([5]; read-out: IC50),pKi ([5]; read-out: Ki),pIC50 ([1]; read-out: IC50),pIC50 ([3]; read-out: IC50),pKi ([3]; read-out: Ki)
C[C@@H]1CC[C@@]2(OC1)O[C@H]1[C@@H](O)[C@H]3[C@@H]4CC[C@H]5C[C@@H](O[C@@H]6O[C@H](CO)[C@H](O[C@@H]7O[C@H](CO)C(O)[C@H](O[C@@H]8OC[C@@H](O)[C@H](O)[C@H]8O)[C@H]7O[C@@H]7O[C@H](CO)[C@H](O)[C@H](O[C@@H]8O[C@H](CO)[C@@H](O)[C@H](O)[C@H]8O)[C@H]7O)[C@H](O)[C@H]6O)[C@H](O)C[C@]5(C)[C@H]4CC[C@]3(C)[C@H]1[C@@H]2C (some centres undefined) [DIGITONIN],Not Active,Not Active,Not Active,Not Active,Not Active,Not Active,,,,,
OC(CCCN1CCCCC1)(c1ccccc1)c1ccccc1 [DIPHENIDOL],Not Active,Not Active,Not Active,Not Active,Not Active,Not Active,,,,,
C[C@H]1O[C@@H](n2cc(F)c(=O)[nH]c2=O)[C@H](O)[C@@H]1O [DOXIFLURIDINE],Not Active,Not Active,Not Active,Not Active,Not Active,Not Active,,,,,
Cn1c(=O)c2c(ncn2CC(O)CO)n(C)c1=O (centres undefined) [DYPHYLLINE],Not Active,Not Active,Not Active,Not Active,Not Active,Not Active,,,,,
CC[C@H]1CN2CCc3cc(OC)c(OC)cc3[C@@H]2C[C@@H]1C[C@H]1NCCc2cc(OC)c(OC)cc21 [EMETINE],Not Active,Not Active,Not Active,Not Active,Not Active,Not Active,,,,,
C[C@@H](CO)NC(=O)[C@@H]1C=C2c3cccc4[nH]cc(c34)C[C@H]2N(C)C1 [ERGONOVINE],Not Active,Not Active,Not Active,Not Active,Not Active,,8.09,8.33,,,
COC(=O)CCc1ccc(OCC(O)CNC(C)C)cc1 (centres undefined) [ESMOLOL],Not Active,Not Active,Not Active,Not Active,Not Active,Not Active,,,,,
CCC1(C)CC(=O)NC1=O (centres undefined) [ETHOSUXIMIDE],Not Active,Not Active,Not Active,Not Active,Not Active,Not Active,,,,,
C#C[C@]1(OC(C)=O)CC[C@H]2[C@@H]3CCC4=C[C@@H](OC(C)=O)CC[C@@H]4[C@H]3CC[C@@]21C [ETHYNODIOL DIACETATE],Not Active,Not Active,Not Active,Not Active,Not Active,Not Active,,,,,
COc1cc([C@@H]2c3cc4c(cc3[C@@H](O[C@@H]3O[C@@H]5CO[C@@H](C)O[C@H]5[C@H](O)[C@H]3O)[C@H]3COC(=O)[C@H]23)OCO4)cc(OC)c1O [ETOPOSIDE],Not Active,Not Active,Not Active,Not Active,Not Active,Not Active,,,,,
C=CCc1ccc(O)c(OC)c1 [EUGENOL],Not Active,Not Active,Not Active,Not Active,Not Active,Not Active,,,,,
CC(C(=O)O)c1cccc(Oc2ccccc2)c1 (centres undefined) [FENOPROFEN],Not Active,Not Active,Not Active,Not Active,Not Active,Not Active,,,,,
CC(C)(C)NC(=O)[C@H]1CC[C@H]2[C@@H]3CC[C@H]4NC(=O)C=C[C@]4(C)[C@H]3CC[C@]12C [FINASTERIDE],Not Active,Not Active,Not Active,Not Active,Not Active,Not Active,,,,,
COc1ccc2c3c1O[C@H]1C[C@@H](O)C=C[C@@]31CCN(C)C2 [GALANTAMINE],Not Active,Not Active,Not Active,Not Active,Not Active,Not Active,,,,,
Nc1ccn([C@@H]2O[C@H](CO)[C@@H](O)C2(F)F)c(=O)n1 [GEMCITABINE],Not Active,Not Active,Not Active,Not Active,Not Active,Not Active,,,,,
CC(C)=CCC/C(C)=C/CO [GERANIOL],Not Active,Not Active,Not Active,Not Active,Not Active,Not Active,,,,,

SMILES,IC50 [1],IC50 [2],IC50 [3],IC50 [4],Ki [4],IC50 [5],pIC50 ([5]; read-out: IC50),pKi ([5]; read-out: Ki),pIC50 ([1]; read-out: IC50),pIC50 ([3]; read-out: IC50),pKi ([3]; read-out: Ki)
N=C(N)NC(=O)Cc1c(Cl)cccc1Cl [GUANFACINE],Not Active,Not Active,Not Active,Not Active,Not Active,Not Active,,,,,
Oc1c(Cl)cc(Cl)c(Cl)c1Cc1c(O)c(Cl)cc(Cl)c1Cl [HEXACHLOROPHENE],,Not Active,,Not Active,Not Active,Not Active,,,6.71,5.38,5.86
NNc1nncc2ccccc12 [HYDRALAZINE],Not Active,Not Active,Not Active,Not Active,Not Active,Not Active,,,,,
CC(=O)[C@@]1(O)CC[C@H]2[C@@H]3CCC4=CC(=O)CC[C@]4(C)[C@H]3CC[C@@]21C [HYDROXYPROGESTERONE],Not Active,Not Active,Not Active,Not Active,Not Active,Not Active,,,,,
COC1=C(OC)C(=O)C(CCCCCCCCCCO)=C(C)C1=O [IDEBENONE],Not Active,Not Active,Not Active,Not Active,Not Active,Not Active,,,,,
CC(C)NNC(=O)c1ccncc1 [IPRONIAZID],Not Active,Not Active,Not Active,Not Active,Not Active,Not Active,,,,,
Cc1c(OCC(F)(F)F)ccnc1C[S+]([O-])c1nc2ccccc2[nH]1 (centres undefined) [LANSOPRAZOLE],Not Active,Not Active,Not Active,Not Active,Not Active,Not Active,,,,,
O=c1cc(N2CCOCC2)oc2c(-c3ccccc3)cccc12 [LY-294002],Not Active,Not Active,Not Active,Not Active,Not Active,Not Active,,,,,
COc1ccc2[nH]cc(CCNC(C)=O)c2c1 [MELATONIN],Not Active,Not Active,Not Active,Not Active,Not Active,Not Active,,,,,
NC(=O)C[S+]([O-])C(c1ccccc1)c1ccccc1 (centres undefined) [MODAFINIL],Not Active,Not Active,Not Active,Not Active,Not Active,Not Active,,,,,
CCN(CC)CCOCCC1=CCC2CC1C2(C)C (centres undefined) [MYRTECAINE],Not Active,Not Active,Not Active,Not Active,Not Active,Not Active,,,,,
O=C(O)c1cccnc1Nc1cccc(C(F)(F)F)c1 [NIFLUMIC ACID],Not Active,Not Active,Not Active,Not Active,Not Active,Not Active,,,,,
O=C(N/N=C/c1ccc([N+](=O)[O-])o1)c1cc([N+](=O)[O-])cc([N+](=O)[O-])c1O [NIFURSOL],Not Active,Not Active,Not Active,Not Active,Not Active,Not Active,,,,,
COC(=O)Nc1nc2ccc(C(=O)c3cccs3)cc2[nH]1 [NOCODAZOLE],Not Active,Not Active,Not Active,Not Active,Not Active,Not Active,,,,,
C#CC1(O)CC[C@H]2[C@@H]3CCC4=CC(=O)CC[C@@H]4[C@H]3CC[C@@]21CC (some centres undefined) [NORGESTREL],Not Active,Not Active,Not Active,Not Active,Not Active,Not Active,,,,,
COC(=O)Nc1nc2ccc([S+]([O-])c3ccccc3)cc2[nH]1 (centres undefined) [OXFENDAZOLE],Not Active,Not Active,Not Active,Not Active,Not Active,Not Active,,,,,

# Source: ChEMBL document CHEMBL1909046, “DrugMatrix in vitro pharmacology data”
